Among the data in US11339142B2, “Di-substituted pyrazole compounds for the treatment of diseases” (FGH BIOTECH, INC., priority 2016, dated 2022) are inhibition and IC50 values, retold here.

As usually defined, the inhibition is the change of the read-out against control, counted positive when it falls. The term pIC50 denotes the negative decadic logarithm of the IC50, by convention in mol/L. A higher pIC50 goes with a small IC50.

pIC50: −log10 of the molar value.

One experiment has as its system PCSK9 expression. The experiment in a line: Quantitative PCR (qPCR) inhibition assay, PCSK9 mRNA expression in Hep G2 cells. In kind it is cell-based. The settings on record: Homo sapiens; HepG2 cells, 320 nM, 24 hours incubation, mRNA by qPCR; read-out: PCSK9 Inhibition Percentage (%) at 320 nM. How it is done: Hep G2 cells were obtained from ATCC and grown in DMEM supplemented with 5% FBS in a 5% CO2 incubator at 37° C. For the assay the cells were plated in 24 well plates at a concentration of 100,000 cells/well in DMEM with 5% FBS. The compounds were serially diluted in DMSO from 0.1 to 20 mM and then diluted 1:1000 in growth medium. The medium was added to the cells in duplicate 24 hours after plating. After 24 hours of incubation the RNA was isolated from the cells using the illustra RNAspin Mini kit (GE Healthcare). For the quantitative PCR the RNA was analyzed using the Power SYBR® Green PCR Master Mix (Applied Biosystems) and gene specific primers. The reaction was run on a StepOnePlus Real-Time PCR System (Thermo Fisher Scientific) and the instrument software was used to determine the Ct values. The fold change of mRNA expression relative to the vehicle control was calculated. Primer sequence was as follows: PCSK9, 5′-[…]-3′/5′-[…]-3′.
(§1) All data for Biological Examples 1a and 1b were measured in HepG2 cells. % inhibition of SCD1 expression, % inhibition of PCSK9 expression, and PCSK9 IC50 data are provided in Table 1. NA means the compound was not active at the concentration tested.
For orientation: Real-time PCR tracks product formation cycle by cycle.
Regarding `CCCn1cc(-n2cc(-c3ccc(OCC(C)C)cc3Cl)cn2)ccc1=O` [Example 8], the inhibition at 0.32 µM was not below 40%.

`CCCn1cc(-n2cc(-c3ccc(OCC4(CO)CC4)nc3C)cn2)ccc1=O` [Example 13]: the inhibition at 0.32 µM was not below 40%.

Turning to `CCCn1cc(-n2cc(-c3ccc(OCC(C)(C)CO)nc3C)cn2)ccc1=O` [Example 14], the inhibition at 0.32 µM was not below 40%.

For the molecule `CCCn1cc(-n2cc(-c3ccc(OCC4(CO)COC4)nc3C)cn2)ccc1=O` [Example 15], the inhibition at 0.32 µM was not below 40%.

Consider `CCCn1cc(-n2cc(-c3ccc(OCC4(CO)CCC4)nc3C)cn2)ccc1=O` [Example 16], for which the inhibition at 0.32 µM is not below 40%.

Regarding `CCCn1cc(-n2cc(-c3ccc(OCC4CC4)cc3Cl)cn2)ccc1=O` [Example 26], the inhibition at 0.32 µM is not below 40%.

In the case of `CCCn1cc(-n2cc(-c3ccc(OCC4CC4)c(F)c3)cn2)ccc1=O` [Example 27], the inhibition at 0.32 µM is less than 10%.

Regarding `CCCn1cc(-n2cc(-c3cc(F)c(OCC4CC4)c(F)c3)cn2)ccc1=O` [Example 28], the inhibition at 0.32 µM was less than 10%.

Turning to `CCCn1cc(-n2cc(-c3ccc(OCC4CC4)c(C)c3)cn2)ccc1=O` [Example 29], the inhibition at 0.32 µM was less than 10%.

Consider `CCCn1cc(-n2cc(-c3ccc(OCC4CC4)cc3F)cn2)ccc1=O` [Example 30], for which the inhibition at 0.32 µM fell in the range of 10 to 40%.

Turning to `CCCn1cc(-n2cc(-c3ccc(OCC(C)C)cc3F)cn2)ccc1=O` [Example 31], the inhibition at 0.32 µM fell in the range of 10 to 40%.

Consider `CCCn1cc(-n2cc(-c3ccc(OC(CC)CC)cc3Cl)cn2)ccc1=O` [Example 38], for which the inhibition at 0.32 µM was not below 40%.

In the case of `CCCn1cc(-n2cc(-c3ccc(OCC4(CO)COC4)cc3Cl)cn2)ccc1=O` [Example 39], the inhibition at 0.32 µM was not below 40%.

For the molecule `CCCn1cc(-n2cc(-c3ccc(OCC4(CO)CCC4)cc3Cl)cn2)ccc1=O` [Example 49, 5-(4-(2-chloro-4-((1-(hydroxymethyl)cyclobutyl)methoxy)phenyl)-1H-pyrazol-1-yl)-1-propylpyridin-2(1H)-one], the inhibition at 0.32 µM is not below 40%.

Regarding `CCCn1cc(-n2cc(-c3ccc(S(=O)(=O)C(C)C)nc3C)cn2)ccc1=O` [Example 52, 5-(4-(6-(isopropylsulfonyl)-2-methylpyridin-3-yl)-1H-pyrazol-1-yl)-1-propylpyridin-2(1H)-one], the inhibition at 0.32 µM is less than 10%.

With `CCCn1cc(-n2cc(-c3cnc(OC(C)C)nc3)cn2)ccc1=O` [Example 53, 5-(4-(2-isopropoxypyrimidin-5-yl)-1H-pyrazol-1-yl)-1-propylpyridin-2(1H)-one], the inhibition at 0.32 µM was less than 10%.

Take `CCCn1cc(-n2cc(-c3cnc(S(=O)(=O)C(C)C)nc3)cn2)ccc1=O` [Example 54, 5-(4-(2-(isopropylsulfonyl)pyrimidin-5-yl)-1H-pyrazol-1-yl)-1-propylpyridin-2(1H)-one]: the inhibition at 0.32 µM was less than 10%.

On to `CCCn1cc(-n2cc(-c3ccc(S(=O)(=O)C4CCC4)cc3C)cn2)ccc1=O` [Example 78], for which the inhibition at 0.32 µM is not below 40%.

Consider `CCCn1cc(-n2cc(-c3ccc(S(=O)(=O)C4CCC(F)(F)CC4)cc3C)cn2)ccc1=O` [Example 79], for which the inhibition at 0.32 µM lay in the range of 10 to 40%.

On to `CCCn1cc(-n2cc(-c3ccc(S(=O)(=O)C4CC(F)(F)C4)cc3C)cn2)ccc1=O` [Example 80], for which the inhibition at 0.32 µM lay within 10 to 40%.

Regarding `CCCn1cc(-n2cc(-c3ccc(OCC4(CO)CC4)cc3C)cn2)ccc1=O` [Example 81], the inhibition at 0.32 µM is not below 40%.

Turning to `CCCn1cc(-n2cc(-c3ccc(OCC(F)(F)CO)nc3C)cn2)ccc1=O` [Example 82], the inhibition at 0.32 µM is not below 40%.

Still in this experiment, the particulars now being: Homo sapiens; HepG2 cells, 24 hours incubation, mRNA by qPCR.
`CCCn1cc(-n2cc(-c3ccc(OCC(C)C)cc3Cl)cn2)ccc1=O` [Example 8] had a pIC50 of 6.22 to 6.82.

For `CCCn1cc(-n2cc(-c3ccc(OCC4(CO)CC4)nc3C)cn2)ccc1=O` [Example 13], the pIC50 is not below 6.82.

In turn, `CCCn1cc(-n2cc(-c3ccc(OCC(C)(C)CO)nc3C)cn2)ccc1=O` [Example 14] had a pIC50 not below 6.82.

With `CCCn1cc(-n2cc(-c3ccc(OCC4(CO)COC4)nc3C)cn2)ccc1=O` [Example 15], the negative logarithm of the IC50 (pIC50) was not below 6.82.

As to `CCCn1cc(-n2cc(-c3ccc(OCC4(CO)CCC4)nc3C)cn2)ccc1=O` [Example 16], the pIC50 is not below 6.82.

In the case of `CCCn1cc(-n2cc(-c3ccc(OCC4(CO)COC4)cc3Cl)cn2)ccc1=O` [Example 39], the negative logarithm of the IC50 (pIC50) was 6.22 to 6.82.

Regarding `CCCn1cc(-n2cc(-c3ccc(OCC4(CO)CCC4)cc3Cl)cn2)ccc1=O` [Example 49, 5-(4-(2-chloro-4-((1-(hydroxymethyl)cyclobutyl)methoxy)phenyl)-1H-pyrazol-1-yl)-1-propylpyridin-2(1H)-one], the pIC50 is not below 6.82.

Turning to `CCCn1cc(-n2cc(-c3ccc(S(=O)(=O)C4CCC4)cc3C)cn2)ccc1=O` [Example 78], the pIC50 was not below 6.82.

Turning to `CCCn1cc(-n2cc(-c3ccc(OCC4(CO)CC4)cc3C)cn2)ccc1=O` [Example 81], the pIC50 was not below 6.82.

The subject of the next experiment is SCD1 expression. The experiment in a line: Quantitative PCR (qPCR) inhibition assay, SCD1 mRNA expression in Hep G2 cells. It counts as cell-based. The note with it: Homo sapiens, HepG2 cells, 24 hours incubation, mRNA by qPCR, read-out: SCD1 Inhibition Percentage (%) at 1 μM. As to the method: Hep G2 cells were obtained from ATCC and grown in DMEM supplemented with 10% FBS in a 5% CO2 incubator at 37° C. For the assay the cells were plated in 96 well plates at a concentration of 75,000 cells/well in DMEM with 5% FBS. The compounds were serially diluted in DMSO from 30 to 0.1 mM and then diluted 1:1000 in growth medium. The medium was added to the cells in duplicate 24 hours after plating. After 24 hours of incubation the RNA was isolated from the cells using the RNAqueous®-96 Total RNA Isolation Kit (Ambion). The eluted RNA was reverse transcribed using the Cells-to-Ct kit reverse transcriptase (Ambion). For the quantitative PCR the cDNA was analyzed using the Power SYBR® Green PCR Master Mix (Applied Biosystems) and gene specific primers. The reaction was run on an ABI7300 thermocycler and the instrument software was used to determine the Ct values. The fold change of mRNA expression relative to the vehicle control was calculated using the method by Livak. Primer sequence was as follows: SCD1, 5′-[…]-3′/5′-[…]-3′.
as §1
As to `CCCn1cc(-n2cc(-c3ccc(OC4CCCC4)nc3C)cn2)ccc1=O` [Example 1, 5-(4-(6-(cyclopentyloxy)-2-methylpyridin-3-yl)-1H-pyrazol-1-yl)-1-propylpyridin-2(1H)-one], the inhibition at 1 µM is not below 40%.

Consider `CCCn1cc(-n2cc(-c3ccc(OC(C)C)nc3C)cn2)ccc1=O` [Example 2], for which the inhibition at 1 µM is not below 40%.

As to `CCCn1cc(-n2cc(-c3ccc(OC(F)(F)F)cc3Cl)cn2)ccc1=O` [Example 4], the inhibition at 1 µM is not below 40%.

For the molecule `CCCn1cc(-n2cc(-c3ccc(OC4CCC4)nc3C)cn2)ccc1=O` [Example 7], the inhibition at 1 µM was not below 40%.

Take `CCCn1cc(-n2cc(-c3ccc(OC(C)C4CC4)nc3C)cn2)ccc1=O` (stereo not drawn) [Example 11]: the inhibition at 1 µM is not below 40%.

In the case of `CCCn1cc(-n2cc(-c3ccc(OC4CC4)nc3C)cn2)ccc1=O` [Example 12], the inhibition at 1 µM lay in the range of 10 to 40%.

Regarding `CCCn1cc(-n2cc(-c3ccc(S(=O)(=O)CC4CC4)cc3Cl)cn2)ccc1=O` [Example 19], the inhibition at 1 µM was not below 40%.

On to `CCCn1cc(-n2cc(-c3ccc(S(=O)(=O)C(CC)CC)cc3Cl)cn2)ccc1=O` [Example 20], for which the inhibition at 1 µM is not below 40%.

With `CCCn1cc(-n2cc(-c3ccc(S(=O)(=O)C(C)C)cc3F)cn2)ccc1=O` [Example 21], the inhibition at 1 µM was not below 40%.

For `CCCn1cc(-n2cc(-c3ccc(S(=O)(=O)C(C)C)cc3)cn2)ccc1=O` [Example 25], the inhibition at 1 µM is not below 40%.

Take `CCCn1cc(-n2cc(-c3ccc(OCC4(CO)CC4)cc3Cl)cn2)ccc1=O` [Example 32]: the inhibition at 1 µM is not below 40%.

As for `CCCn1cc(-n2cc(-c3ccc(OCCCO)cc3Cl)cn2)ccc1=O` [Example 33], the inhibition at 1 µM was not below 40%.

Take `CCCn1cc(-n2cc(-c3ccc(OC(C)C4CC4)cc3Cl)cn2)ccc1=O` (stereo not drawn) [Example 34]: the inhibition at 1 µM is not below 40%.

Take `CCCn1cc(-n2cc(-c3ccc(O[C@@H](C)CC)cc3Cl)cn2)ccc1=O` [Example 35]: the inhibition at 1 µM was not below 40%.

For the molecule `CCCn1cc(-n2cc(-c3ccc(O[C@H](C)CC)cc3Cl)cn2)ccc1=O` [Example 36], the inhibition at 1 µM was not below 40%.

`CCCn1cc(-n2cc(-c3ccc(OC(C)CO)cc3Cl)cn2)ccc1=O` (stereo not drawn) [Example 37]: the inhibition at 1 µM was not below 40%.

With `CCCn1cc(-n2cc(-c3ccc(OC(C)C)cc3Cl)cn2)ccc1=O` [Example 40], the inhibition at 1 µM lay in the range of 10 to 40%.

In the case of `CCCn1cc(-n2cc(-c3ccc(O[C@H](C)CC)cc3)cn2)ccc1=O` [Example 41], the inhibition at 1 µM is not below 40%.

As to `CCCn1cc(-n2cc(-c3ccc(OC(C)CO)cc3)cn2)ccc1=O` (stereo not drawn) [Example 42], the inhibition at 1 µM lay within 10 to 40%.

Turning to `CCCn1cc(-n2cc(-c3ccc(OC)cc3Cl)cn2)ccc1=O` [Example 45, 5-(4-(2-chloro-4-methoxyphenyl)-1H-pyrazol-1-yl)-1-propylpyridin-2(1H)-one], the inhibition at 1 µM is 10 to 40%.

Regarding `CCCn1cc(-n2cc(-c3ccc(OC)cc3)cn2)ccc1=O` [Example 46, 5-(4-(4-methoxyphenyl)-1H-pyrazol-1-yl)-1-propylpyridin-2(1H)-one], the inhibition at 1 µM was 10 to 40%.

As to `CCCn1cc(-n2cc(-c3ccc(OC(C)CCO)cc3Cl)cn2)ccc1=O` (stereo not drawn) [Example 47, 5-(4-(2-chloro-4-((4-hydroxybutan-2-yl)oxy)phenyl)-1H-pyrazol-1-yl)-1-propylpyridin-2(1H)-one], the inhibition at 1 µM was not below 40%.

For `CCCn1cc(-n2cc(-c3ccc(OCC(C)(C)CO)cc3Cl)cn2)ccc1=O` [Example 48, 5-(4-(2-chloro-4-(3-hydroxy-2,2-dimethylpropoxy)phenyl)-1H-pyrazol-1-yl)-1-propylpyridin-2(1H)-one], the inhibition at 1 µM was not below 40%.

Turning to `Cc1nc(OC2CCCC2)ccc1-c1cnn(-c2ccc(=O)n(CC(C)C)c2)c1` [Example 50, 5-(4-(6-(cyclopentyloxy)-2-methylpyridin-3-yl)-1H-pyrazol-1-yl)-1-isobutylpyridin-2(1H)-one], the inhibition at 1 µM was not below 40%.

As to `CCCn1cc(-n2cc(-c3ccc(S(=O)(=O)CC)cc3)cn2)ccc1=O` [Example 51, 5-(4-(4-(ethylsulfonyl)phenyl)-1H-pyrazol-1-yl)-1-propylpyridin-2(1H)-one], the inhibition at 1 µM was not below 40%.

`CCCn1cc(-n2cc(-c3ccc(S(=O)(=O)CC)cc3Cl)cn2)ccc1=O` [Example 55, 5-(4-(2-chloro-4-(ethylsulfonyl)phenyl)-1H-pyrazol-1-yl)-1-propylpyridin-2(1H)-one]: the inhibition at 1 µM is not below 40%.
